In brackets after ≈: the same amount, converted by molar mass.
How the values were obtained:
[1] = test system: HCV replicon I389luc-ubi-neo/NS3-3'/5.1; assay: Anti-HCV replicon assay (luciferase activity) in Huh-5-2 cells; type: cell-based, Hepatitis C virus; settings: Hepatitis C virus, Huh-5-2, 72 h, concentration required to inhibit luciferase activity in the replicon system by 50%
Summary of the method: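 Huh-5-2 cells carrying the luciferase HCV replicon, seeded 24 h, then exposed to serial compound dilutions without G418 for 72 h at 37° C, 5% CO2. Replication read as luciferase luminescence, expressed as percentage of untreated cultures; culture density measured in parallel by MTS.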

[2] = Proliferation of exponentially growing Huh-5-2 cells (MTS method); settings: human, CC50, concentration required to inhibit the proliferation of exponentially growing Huh-5-2 cells by 50%; Table 2
Method: Cells were seeded at a density of 7000 cells per well in 96 well View Plate™ (Packard) in medium containing the same components as described above, except for G418. Cells were allowed to adhere and proliferate for 24 hr. At that time, culture medium was removed and serial dilutions of the test compounds were added in culture medium lacking G418. Interferon alfa 2a (500 IU) was included as a positive control. Plates were further incubated at 37° C. and 5% CO2 for 72 hours. Replication of the HCV replicon in Huh-5 cells results in luciferase activity in the cells. Luciferase activity is measured by adding 50 μl of 1×Glo-lysis buffer (Promega) for 15 minutes followed by 50 ul of the Steady-Glo Luciferase assay reagent (Promega). Luciferase activity is measured with a luminometer and the signal in each individual well is expressed as a percentage of the untreated cultures. […] Instead the density of the culture is measured by means of the MTS method (Promega).

SMILES	IC50 [1] [mg/L]	CC50 at 72 h [2] [mg/L]
COCCN1C(=O)c2ccccc2C(C(=O)Nc2cccc(OC)c2)C1c1ccc(F)cc1 (centres unmarked) [C9, 3-(4-Fluorophenyl)-2-(2-methoxyethyl)-N-(3-methoxyphenyl)-1-oxo-1,2,3,4-tetrahydroisoquinoline-4-carboxamide]	13.4 (≈ 29.8 µM)	50.7 (≈ 113 µM)
COCCN1C(=O)c2cccc(OC)c2C(C(=O)Nc2cccc(OC)c2)C1c1cccs1 (centres unmarked) [C148, 5-methoxy-2-(2-methoxyethyl)-N-(3-methoxyphenyl)-1-oxo-3-(thiophen-2-yl)-1,2,3,4-tetrahydroisoquinoline-4-carboxamide]	24.6 (≈ 52.6 µM)	52.1 (≈ 112 µM)
COCCN1C(=O)c2ccccc2C(C(=O)Nc2ccccc2)C1c1cccs1 (centres unmarked) [C18, 2-(2-Methoxyethyl)-1-oxo-N-phenyl-3-(thiophen-2-yl)-1,2,3,4-tetrahydroisoquinoline-4-carboxamide]	2.65 (≈ 6.52 µM)	78.2 (≈ 192 µM)
COCCN1C(=O)c2ccccc2C(C(=O)Nc2cc(-c3ccccc3)nn2C)C1c1cccs1 (centres unmarked) [C208, 2-(2-methoxyethyl)-N-(1-methyl-3-phenyl-1H-pyrazol-5-yl)-1-oxo-3-(thiophen-2-yl)-1,2,3,4-tetrahydroisoquinoline-4-carboxamide]	0.39 (≈ 0.801 µM)	7.94 (≈ 16.3 µM)
COCCN1C(=O)c2ccccc2C(C(=O)Nc2nc3ccc(F)cc3s2)C1c1cccs1 (centres unmarked) [C199, N-(6-fluorobenzo[d]thiazol-2-yl)-2-(2-methoxyethyl)-1-oxo-3-(thiophen-2-yl)-1,2,3,4-tetrahydroisoquinoline-4-carboxamide]	0.12 (≈ 0.249 µM)	5.97 (≈ 12.4 µM)
COCCN1C(=O)c2ccccc2C(C(=O)Nc2ccc(-c3nnc(C)o3)cc2)C1c1cccs1 (centres unmarked) [C205, 2-(2-methoxyethyl)-N-(4-(5-methyl-1,3,4-oxadiazol-2-yl)phenyl)-1-oxo-3-(thiophen-2-yl)-1,2,3,4-tetrahydroisoquinoline-4-carboxamide]	0.034 (≈ 0.0696 µM)	38.8 (≈ 79.5 µM)
COCCN1C(=O)c2ccccc2C(C(=O)Nc2ccc(-c3ccn(C)n3)cc2)C1c1cccs1 (centres unmarked) [C203, 2-(2-methoxyethyl)-N-(4-(1-methyl-1H-pyrazol-3-yl)phenyl)-1-oxo-3-(thiophen-2-yl)-1,2,3,4-tetrahydroisoquinoline-4-carboxamide]	0.019 (≈ 0.039 µM)	9.4 (≈ 19.3 µM)
COCCN1C(=O)c2ccccc2C(C(=O)Nc2onc(C)c2C#N)C1c1cccs1 (centres unmarked) [C155, N-(4-cyano-3-methylisoxazol-5-yl)-2-(2-methoxyethyl)-1-oxo-3-(thiophen-2-yl)-1,2,3,4-tetrahydroisoquinoline-4-carboxamide]	5.65 (≈ 12.9 µM)	76.4 (≈ 175 µM)
COCCN1C(=O)c2ccccc2C(C(=O)Nc2ccc3[nH]c(C)cc3c2)C1c1cccs1 (centres unmarked) [C131, 2-(2-methoxyethyl)-N-(2-methyl-1H-indol-5-yl)-1-oxo-3-(thiophen-2-yl)-1,2,3,4-tetrahydroisoquinoline-4-carboxamide]	1.12 (≈ 2.44 µM)	69.7 (≈ 152 µM)
COCCN1C(=O)c2ccccc2C(C(=O)N(C)c2cccc(OC)c2)C1c1cccs1 (centres unmarked) [C151, 2-(2-methoxyethyl)-N-(3-methoxyphenyl)-N-methyl-1-oxo-3-(thiophen-2-yl)-1,2,3,4-tetrahydroisoquinoline-4-carboxamide]	22.8 (≈ 50.7 µM)	52 (≈ 115 µM)
COc1cccc(NC(=O)C2c3ccccc3C(=O)N(C3CCCCC3)C2c2cccs2)c1 (centres unmarked) [C25, 2-Cyclohexyl-N-(3-methoxyphenyl)-1-oxo-3-(thiophen-2-yl)-1,2,3,4-tetrahydroisoquinoline-4-carboxamide]	0.98 (≈ 2.13 µM)	5.28 (≈ 11.5 µM)
COCCN1C(=O)c2ccccc2C(C(=O)Nc2cccc(OC)c2)C1c1ccc[nH]1 (centres unmarked) [C29, 2-(2-Methoxyethyl)-N-(3-methoxyphenyl)-1-oxo-3-(1H-pyrrol-2-yl)-1,2,3,4-tetrahydroisoquinoline-4-carboxamide]	14.8 (≈ 35.2 µM)	54.5 (≈ 130 µM)
COc1cccc(NC(=O)C2c3ccccc3C(=O)N(CCO)C2c2cccs2)c1 (centres unmarked) [C23, 2-(2-Hydroxyethyl)-N-(3-methoxyphenyl)-1-oxo-3-(thiophen-2-yl)-1,2,3,4-tetrahydroisoquinoline-4-carboxamide]	43 (≈ 102 µM)	118 (≈ 280 µM)
